In ChEMBL document CHEMBL1201862, “PubChem BioAssay data set” (2004):
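Five compound concentrations were applied to cells in 96-well plates for 48 hours; endpoints were derived by simple linear interpolation of the resulting dose-response curve. GI50: concentration for 50% inhibition of growth.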 Calls of active or inactive are those of the source. Rule as the data show it: active = GI50 up to about 1.1 µM and inactive = higher.

Columns and labels:
Experiment in all cases: NCI anticancer screen, dose series, 48 h
MDA-MB-231 = test system: MDA-MB-231
SNB-75 = test system: SNB-75
UACC-62 = test system: UACC-62
NCI-H522 = test system: NCI-H522
M14 = test system: M14
CCRF-CEM = test system: CCRF-CEM
A498 = test system: A498
RXF 393 = test system: RXF 393
HT-29 = test system: HT-29
NCI-H460 = test system: NCI-H460
Hs-578T = test system: Hs-578T
HCC 2998 = test system: HCC 2998
HOP-92 = test system: HOP-92
UO-31 = test system: UO-31
PC-3 = test system: PC-3
NCI-H23 = test system: NCI-H23
MCF7 = test system: MCF7
MDA-MB-435 = test system: MDA-MB-435
T47D = test system: T47D
U-251 = test system: U-251

Measured: GI50

O=C1/C(=C/c2c(Cl)[nH]c3ccccc23)c2ccccc2N1c1ccccc1
inactive: MDA-MB-231 6.4 µM | SNB-75 6.81 µM | UACC-62 5.65 µM | NCI-H522 3.05 µM | M14 3.93 µM | CCRF-CEM 3.9 µM | A498 10.4 µM | RXF 393 11.9 µM | HT-29 3.53 µM | NCI-H460 3.59 µM | Hs-578T 3.9 µM | HCC 2998 8.97 µM | HOP-92 9.44 µM | UO-31 6.46 µM | PC-3 4.28 µM | NCI-H23 5.32 µM | MCF7 4.02 µM | MDA-MB-435 1.64 µM | T47D 3.37 µM | U-251 5.05 µM
